# Measured values reported in patent publication US20250257034A1, “INDOLE DERIVATIVES AS SEROTONERGIC AGENTS USEFUL FOR THE TREATMENT OF DISORDERS RELATED THERETO” (priority 2023, published 2025).
# Several values for one entry are separate records, joined by “and”; a condition that tells them apart may be missing. Identical values can stand only once. Like-named read-outs stand apart in the source and are kept apart here.
# Legend:
# [1] = Mouse liver microsomes stability; format: in vitro ADME; conditions: for microsomal CLint at 2 μM / half-life at 2 μM / CLint scaled at 2 μM: male; for microsomal CLint at 2 μM: mouse, read-out: CLint (μL/min/mg protein); for microsomal CLint at 2 μM / half-life at 2 μM: 2 μM compound; for CLint scaled at 2 μM: read-out: Scaled-up CLint
# [2] = Pharmacokinetic studies in rat (i.v.); format: in vivo; conditions: for concentration at 0.25 h / concentration at 1 h / concentration at 4 h / AUC(0-t) / half-life: male, Sprague-Dawley, rat, plasma
# Protocol: Animals: Male Sprague-Dawley rats (˜225-350 g) from Charles River Labs were acclimatized for a minimum of 5 days prior to start of study procedures. Body weights were recorded on the day of dosing.
# Any abnormalities were documented including presence/absence of wet dog shakes/back muscle contractions (WDS/BMC).
# Dosing: Formulations were administered intravenously (i.v.) via the tail vein using a 25 G needle connected to a 1 cc syringe.
# The Compounds of Formula (I) were freshly prepared at the appropriate concentrations in 5% Tween-80 in saline.
# Blood collection time (h): 0.25, 1 and 4.
# Volume/time-point: ˜0.25 mL […] (saphenous vein).
# Instrumentation: AB Sciex QTRAP 4000 or 6500 MS/MS system equipped with an LC system with a binary pump, a solvent degasser, a thermostatted column compartment and a multiplate autosampler.
# Analysis software: Phoenix® WinNonlin® 8.3 (Pharsight, Certara, Mountainview, CA).
# Analysis methods: non-compartmental analysis, linear up/log down trapezoidal rule.
# PK parameters: t1/2 and AUC0-tlast were be estimated.
# Volume/time-point: ˜0.25 mL (saphenous vein).
# PK parameters: t1/2 and AUC0-tlast were estimated.
# [3] = Human liver microsomes stability; format: in vitro ADME; conditions: for half-life at 2 μM / microsomal CLint at 2 μM: 2 μM compound; for microsomal CLint at 2 μM: read-out: CLint (μL/min/mg protein); for CLint scaled at 2 μM: read-out: Scaled-up CLint
# Summary of the method: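 Parent depletion was measured by LC-MS/MS as peak-area ratio to internal standard. Compounds (2 μM) were incubated at 37° C with liver microsomes of each species and 1 mM NADPH, then sampled to 60 min. Intrinsic clearance in μL/min/mg protein derives from the log-linear slope.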
# [4] = pooled liver microsomes, mouse liver microsomes, 0.5 mg/mL
# [5] = human liver microsomes, 0.5 mg/mL
compound,measurement,setting,value
"COc1ccc2[nH]cc(CCN(C)CCOC(F)F)c2c1 [Compound I-71, 2-(Difluoromethoxy)-N-(2-(5-methoxy-1H-indol-3-yl)ethyl)-N-methylethan-1-amine]",microsomal CLint at 2 μM,[1]; [4],178 µL/min/mg
same,half-life at 2 μM,[1]; [4],7.8 min
same,CLint scaled at 2 μM,"[1]; pooled liver microsomes, mouse liver microsomes",777 mL/min/kg
same,Predicted hepatic CL,[1]; mouse liver microsomes,80.66 mL/min/kg
same,Remaining Percentage (%),"[1]; mouse liver microsomes, With Cofactors, 0 min",100.00%
same,Remaining Percentage (%),"[1]; mouse liver microsomes, With Cofactors, 30 min",6.96%
same,Remaining Percentage (%),"[1]; mouse liver microsomes, With Cofactors, 60 min",0.66%
same,Remaining Percentage (%),"[1]; mouse liver microsomes, Without Cofactors, 0 min",100.00%
same,Remaining Percentage (%),"[1]; mouse liver microsomes, Without Cofactors, 30 min",105.81%
same,Remaining Percentage (%),"[1]; mouse liver microsomes, Without Cofactors, 60 min",109.68%
same,concentration at 0.25 h,"[2]; intravenous, rat i.v., 0.25 h, first individual rat (R01/R04), dose 1.37 mg/kg (I-71, I-128), 1.33 mg/kg ((S) I-67), read-out: Plasma concentration",292 ng/mL
same,concentration at 0.25 h,"[2]; intravenous, rat i.v., 0.25 h, mean of 3 rats, dose 1.37 mg/kg (I-71, I-128), 1.33 mg/kg ((S) I-67), read-out: Plasma concentration, Mean ± SD",286 ± 6.03 ng/mL
same,concentration at 0.25 h,"[2]; intravenous, rat i.v., 0.25 h, second individual rat (R02/R05), dose 1.37 mg/kg (I-71, I-128), 1.33 mg/kg ((S) I-67), read-out: Plasma concentration",280 ng/mL
same,concentration at 0.25 h,"[2]; intravenous, rat i.v., 0.25 h, third individual rat (R03/R06), dose 1.37 mg/kg (I-71, I-128), 1.33 mg/kg ((S) I-67), read-out: Plasma concentration",287 ng/mL
same,concentration at 1 h,"[2]; intravenous, rat i.v., 1 h, first individual rat (R01/R04), dose 1.37 mg/kg (I-71, I-128), 1.33 mg/kg ((S) I-67), read-out: Plasma concentration",61.5 ng/mL
same,concentration at 1 h,"[2]; intravenous, rat i.v., 1 h, mean of 3 rats, dose 1.37 mg/kg (I-71, I-128), 1.33 mg/kg ((S) I-67), read-out: Plasma concentration, Mean ± SD",82.5 ± 19.1 ng/mL
same,concentration at 1 h,"[2]; intravenous, rat i.v., 1 h, second individual rat (R02/R05), dose 1.37 mg/kg (I-71, I-128), 1.33 mg/kg ((S) I-67), read-out: Plasma concentration",87.2 ng/mL
same,concentration at 1 h,"[2]; intravenous, rat i.v., 1 h, third individual rat (R03/R06), dose 1.37 mg/kg (I-71, I-128), 1.33 mg/kg ((S) I-67), read-out: Plasma concentration",98.9 ng/mL
same,concentration at 4 h,"[2]; intravenous, rat i.v., 4 h, first individual rat (R01/R04), dose 1.37 mg/kg (I-71, I-128), 1.33 mg/kg ((S) I-67), read-out: Plasma concentration",1.27 ng/mL
same,concentration at 4 h,"[2]; intravenous, rat i.v., 4 h, mean of 3 rats, dose 1.37 mg/kg (I-71, I-128), 1.33 mg/kg ((S) I-67), read-out: Plasma concentration, Mean ± SD",1.82 ± 0.582 ng/mL
same,concentration at 4 h,"[2]; intravenous, rat i.v., 4 h, second individual rat (R02/R05), dose 1.37 mg/kg (I-71, I-128), 1.33 mg/kg ((S) I-67), read-out: Plasma concentration",1.77 ng/mL
same,concentration at 4 h,"[2]; intravenous, rat i.v., 4 h, third individual rat (R03/R06), dose 1.37 mg/kg (I-71, I-128), 1.33 mg/kg ((S) I-67), read-out: Plasma concentration",2.43 ng/mL
same,AUC(0-t),"[2]; iv, rat plasma, i.v., first individual rat (R01/R04), dose 1.37 mg/kg (I-71, I-128), 1.33 mg/kg ((S) I-67), read-out: AUC0-tlast",253 ng·h/mL
same,half-life,"[2]; iv, rat plasma, i.v., first individual rat (R01/R04), estimated from 2 points only, dose 1.37 mg/kg (I-71, I-128), 1.33 mg/kg ((S) I-67), read-out: Apparent t1/2 (converted)",29.6 min
same,AUC(0-t),"[2]; iv, rat plasma, i.v., mean of 3 rats, dose 1.37 mg/kg (I-71, I-128), 1.33 mg/kg ((S) I-67), read-out: AUC0-tlast, Mean ± SD",275 ± 21.7 ng·h/mL
same,half-life,"[2]; iv, rat plasma, i.v., mean of 3 rats, estimated from 2 points only, dose 1.37 mg/kg (I-71, I-128), 1.33 mg/kg ((S) I-67), read-out: Apparent t1/2, Mean ± SD (converted)",31.2 ± 1.69 min
same,AUC(0-t),"[2]; iv, rat plasma, i.v., second individual rat (R02/R05), dose 1.37 mg/kg (I-71, I-128), 1.33 mg/kg ((S) I-67), read-out: AUC0-tlast",275 ng·h/mL
same,half-life,"[2]; iv, rat plasma, i.v., second individual rat (R02/R05), estimated from 2 points only, dose 1.37 mg/kg (I-71, I-128), 1.33 mg/kg ((S) I-67), read-out: Apparent t1/2 (converted)",31.1 min
same,AUC(0-t),"[2]; iv, rat plasma, i.v., third individual rat (R03/R06), dose 1.37 mg/kg (I-71, I-128), 1.33 mg/kg ((S) I-67), read-out: AUC0-tlast",297 ng·h/mL
same,half-life,"[2]; iv, rat plasma, i.v., third individual rat (R03/R06), estimated from 2 points only, dose 1.37 mg/kg (I-71, I-128), 1.33 mg/kg ((S) I-67), read-out: Apparent t1/2 (converted)",32.9 min
same,Predicted hepatic CL,[3]; human liver microsomes,17.80 mL/min/kg
same,half-life at 2 μM,[3]; [5],13.7 min
same,microsomal CLint at 2 μM,[3]; [5],101 µL/min/mg
same,Remaining Percentage (%),"[3]; human liver microsomes, With Cofactors, 0 min",100.00%
same,Remaining Percentage (%),"[3]; human liver microsomes, With Cofactors, 30 min",26.55%
same,Remaining Percentage (%),"[3]; human liver microsomes, With Cofactors, 60 min",4.78%
same,Remaining Percentage (%),"[3]; human liver microsomes, Without Cofactors, 0 min",100.00%
same,Remaining Percentage (%),"[3]; human liver microsomes, Without Cofactors, 30 min",98.77%
same,Remaining Percentage (%),"[3]; human liver microsomes, Without Cofactors, 60 min",104.91%
same,CLint scaled at 2 μM,[3]; human liver microsomes,127 mL/min/kg
"CCN(C)CCc1c[nH]c2ccc(SC)cc12 [Compound I-13, N-Ethyl-N-methyl-2-(5-(methylthio)-1H-indol-3-yl)ethan-1-amine]",Predicted hepatic CL,[1]; Mouse liver microsomes,>84.35 mL/min/kg
same,microsomal CLint at 2 μM,"[1]; liver microsomes, Mouse liver microsomes, 0.5 mg/mL microsomes, 1 mM NADPH",> 307 µL/min/mg
same,half-life at 2 μM,"[1]; Mouse liver microsomes, 0.5 mg/mL microsomes, 1 mM NADPH, 37° C",< 4.51 min
same,CLint scaled at 2 μM,[1]; Mouse liver microsomes,> 1340 mL/min/kg
same,Plasma concentration,"[2]; I-13 1.14 mg/kg i.v., rat plasma, 0.25 h, individual rats R04-R06, 1.14 mg/kg",45.7 ng/mL and 86.5 ng/mL and 113 ng/mL
same,Plasma concentration,"[2]; I-13 1.14 mg/kg i.v., rat plasma, 1 h, individual rats R04-R06, 1.14 mg/kg",46.7 ng/mL and 29.7 ng/mL
same,Plasma concentration,"[2]; I-13 1.14 mg/kg i.v., rat plasma, 4 h, individual rats R04-R06, 1.14 mg/kg",3.51 ng/mL and 1.11 ng/mL and 0.449 ng/mL
same,AUC0-tlast,"[2]; I-13 1.14 mg/kg i.v., rat plasma, individual rats R04-R06, 1.14 mg/kg",109 ng·h/mL and 103 ng·h/mL
same,Apparent t1/2,"[2]; I-13 1.14 mg/kg i.v., rat plasma, individual rats R04-R06, estimated from 2 points only, 1.14 mg/kg",28.6 min
same,concentration at 0.25 h,"[2]; iv, 1.14 mg/kg, I-13 1.14 mg/kg i.v., rat plasma, 0.25 h, Mean ± SD, read-out: Plasma concentration",81.7 ± 33.9 ng/mL
same,concentration at 1 h,"[2]; iv, 1.14 mg/kg, I-13 1.14 mg/kg i.v., rat plasma, 1 h, Mean ± SD, read-out: Plasma concentration",42.9 ± 11.7 ng/mL
same,concentration at 1 h,"[2]; iv, 1.14 mg/kg, I-13 1.14 mg/kg i.v., rat plasma, 1 h, individual rats R04-R06, read-out: Plasma concentration",52.2 ng/mL
same,concentration at 4 h,"[2]; iv, 1.14 mg/kg, I-13 1.14 mg/kg i.v., rat plasma, 4 h, Mean ± SD, read-out: Plasma concentration",1.69 ± 1.61 ng/mL
same,AUC(0-t),"[2]; iv, 1.14 mg/kg, I-13 1.14 mg/kg i.v., rat plasma, Mean ± SD, read-out: AUC0-tlast",105 ± 3.64 ng·h/mL
same,half-life,"[2]; iv, 1.14 mg/kg, I-13 1.14 mg/kg i.v., rat plasma, individual rats R04-R06, estimated from 2 points only, read-out: Apparent t1/2 (converted)",35.1 min
same,AUC(0-t),"[2]; iv, 1.14 mg/kg, I-13 1.14 mg/kg i.v., rat plasma, individual rats R04-R06, read-out: AUC0-tlast",102 ng·h/mL
same,half-life,"[2]; iv, 1.14 mg/kg, I-13 1.14 mg/kg i.v., rat plasma, mean (n = 2), estimated from 2 points only, read-out: Apparent t1/2 (converted)",31.9 min
same,Predicted hepatic CL,[3]; Human liver microsomes,18.16 mL/min/kg
same,half-life at 2 μM,"[3]; Human liver microsomes, 0.5 mg/mL microsomes, 1 mM NADPH, 37° C",11.7 min
same,microsomal CLint at 2 μM,"[3]; Human liver microsomes, 0.5 mg/mL microsomes, 1 mM NADPH",118 µL/min/mg
same,CLint scaled at 2 μM,[3]; Human liver microsomes,148 mL/min/kg
